Experimental data from patent US6930103B2, “Use of vasopeptidase inhibitors in the treatment of metabolic diseases, nephropathy and advanced glycation end-product associated diseases” (Aventis Pharma Deutschland GmbH, priority 2002, dated 2005).
Each block holds one compound with its values, some of them ahead of it.

Columns and labels:
[1] = test system: fat ZDF rats; assay: Histological examination of kidneys of ZDF rats after 6 months treatment; format: in vivo, rat; parameters: Armanni-Ebstein cells MEAN SEVERITY / Glomerulosclerosis MEAN SEVERITY / Atrophy: renal tubule MEAN SEVERITY / Casts: renal tubule MEAN SEVERITY: scale not given here; details: for Incidence of glomerulosclerosis or associated degenerative lesions compared to fat ZDF controls: in words
Method: (§1) The protein and creatinine excretion in the urine of male Zucker Diabetic Fatty (ZDF) Rats (ZDF Gmi fa/fa) and heterozygous control animals (ZDF Gmi −/+) of 10, 17, 27 and 37 weeks age was determined. In further groups, diabetic rats were chronically given either ramipril (1 mg/kg/day, in drinking water) or a compound of formula (II-B) (30 mg/kg/day, in food) over a period from 10 to 37 weeks. The animals were sacrificied after 37 weeks, and their kidneys examined histologically.
In the attached tables a summary of the findings on the kidneys after a treatment period of 6 months is listed.

[2] = test system: ZDF rats; assay: Dot blot analysis of kidney AGE subtypes (CML, CEL, pentosidine) in ZDF rats; format: in vivo, rat
Method: (§2) Kidney AGE values were determined by Dot blot analysis (Stracke et al., Exp. Clin. Endocrinol. Diabets 2002, 109, 330-336) and Reversed-phase high performance liquid chromatography or RP-HPLC (Drusch et al., Food Chem. 1999, 65, 547-553).
Kidney-samples for the dot blot analysis were obtained from 17-week-old male ZDF rats, control rats and ZDF rats treated for seven weeks with 30 mg/kg/d of compound (II-B) and 35 mg/kg/d of compound (III-B). Three animals of each group were sacrificed, the kidneys removed and immediately frozen in liquid nitrogen. Grinding of the kidneys was performed in liquid nitrogen using a freezer mill (Freezer 6750, C3 Analysetechnik GmbH). Kidney sample (10 mg) was dissolved in 1 ml phosphate buffered saline (PBS containing 0.5 g/l Tween 20, 0.5 mM PMSF, […]). The solution was treated two times for five seconds with an ultrasonic cell disrupter (45% power, Bandolin Sonoplus HD 2070), centrifuged for 20 minutes at 4000 rpm and the supernatant was used for dot blot analysis. The nitrocellulose membrane was placed in the dot blot apparatus and washed twice with Tris Buffered Saline (TBS), 100 μl TBS/well. For each sample, 10 μg protein (protein concentration of the samples were determined with the DC Protein Assay, Bio Rad) was diluted in 100 μl TBS and loaded on to the nitrocellulose membrane (Amersham). The membrane was incubated over night in TBS with Tween 20 (TBST; 20 mM Tris, 137 mM NaCl, 0.05% v/v Tween 20) with 5% non-fat dry milk at 4° C. and incubated for 1 hour at room temperature using the following antibody concentration: anti-CML 011 (Biologo) 0.25 μg/ml, anti-CEL (Biologo) 0.25 μg/ml and anti-pentosidine 012 (Biologo) 0.25 μg/ml. After extensive washing in TBST with 5% non-fat dry milk, membranes were exposed to […] anti-mouse IgG antibodies (Dianova) for one hour at room temperature. Membranes were washed again and exposed to the enhanced chemofluorescence detection system (Amersham) according to manufacturer's instructions. Relative fluorescence was determined with the Fluor-Imager 595 (Molecular Dynamics) and quantified using the Image-Quant software. Results were expressed in relative fluorescence (rf) times 10^5 (rf*10^5).

[3] = test system: ZDF rats; assay: RP-HPLC analysis of CML in kidney and heart of ZDF rats; format: in vivo, rat; details: for mean CML conc.: RP-HPLC, ZDF Placebo = 100
Method: as §2
[…] Two animals of each group were analyzed. Grinding of the kidney and heart was performed in liquid nitrogen using a freezer mill (Freezer 6750, C3 Analysetechnik GmbH). Hydrolysis of the organ samples was performed with 6 M hydrochloric acid (HCl) at 110° C. for 12 hours. Sample treatment with o-phthaldialdehyde (OPA) and RP-HPLC was performed as described in Drusch et al., Food Chem. 1999, 65, 547-553.

[4] = test system: Zucker diabetic fatty rats; assay: Blood glucose analysis in ZDF rats; format: in vivo, rat; details: for Blood glucose concentration compared to the untreated ZDF rats: 17-week-old ZDF rats; for blood glucose, mean: ZDF rats
Method: (§3) Blood glucose and HbA1c was measured in 10- and 17-week-old male Zucker diabetic fatty rats (Genetic Model Inc.), control rats (Genetic Model Inc.) and male ZDF rats treated for seven weeks with 30 mg/kg/d of compound (II-B), 35 mg/kg/d of compound (III-B) and 1 mg/kg/d ramipril. Fifteen animals were analyzed in each group.
Blood samples for glucose determination were obtained from ZDF rats using standard sampling tubes. Within 30 minutes of collection, samples were separated from the cells by centrifugation. Quantitative determination of blood glucose in serum was performed with an enzymatic in vitro test from Roche Diagnostics GmbH (Gluco-quant, Roche Diagnostics GmbH) using the automated clinical chemistry analyzer Boehringer Mannheim/Hitachi 912.

[5] = test system: Zucker diabetic fatty rats; assay: HbA1c analysis in ZDF rats; format: in vivo, rat; details: for HbA1c values compared to the untreated ZDF rats: 17-week-old ZDF rats; for HbA1c, mean: ZDF rats
Method: as §3
To obtain blood samples for HbA1c determination, disposable capillary tubes were used. HbA1c values were obtained from hemolyzed whole blood samples with a turbidimetric inhibition immunoassay (Tina-quant, Roche Diagnostics GmbH) and hemoglobin concentrations were determined in a second channel on an automated clinical chemistry analyzer (Boehringer Mannheim/Hitachi 912). HbA1c concentration in percent were calculated from HbA1c to total hemoglobin.

[6] = test system: Zucker Diabetic Fatty (ZDF) Rats (ZDF Gmi fa/fa); assay: Urinary excretion of albumin and creatinine in ZDF rats treated from 10 to 37 weeks of age; format: in vivo, rat; details: ZDF rats, mean
Method: as §1

[7] = test system: ZDF rats; assay: Urinary albumin/creatinine in ZDF rats, treatment starting at an animal age of 6 months; format: in vivo, rat; details: start at age 6 months, mean
[8] = test system: Goto-Kakizaki (GK) rats; assay: Albumin and creatinine excretion in Goto-Kakizaki (GK) rats; format: in vivo, rat; details: start at age 6 months, mean
Method: The albumin and creatinine excretion in Goto-Kakizaki (GK) rats was determined. GK rats are a model for Type II diabetes. One group was left untreated, one was treated with the ACE/NEP inhibitor of formula (II-B) and one group was treated with the ACE inhibitor ramipril. [table]

[9] = test system: Wistar rats; assay: Albumin and creatinine excretion in Wistar rats (non-diabetic nephropathy); format: in vivo, rat; details: Wistar rats, start at age 6 months, mean
Method: The albumin and creatinine excretion in Wistar rats was determined. One group was left untreated, one was treated with the ACE/NEP inhibitor of formula (II-B) and one group was treated with the ACE inhibitor ramipril. Wistar rats are non-diabetic and develop proteinuria and structural kidney damage during adult life. Wistar rats are therefore a model for non-diabetic nephropathy. [table]

[10] = test system: isolated aortic rings of rabbits; assay: Relaxation of aortic rings by acetylcholine in rabbits fed an atherogenic diet; format: in vivo, White New Zealand rabbits; details: varied diet rabbits, mean ± SEM
Excerpt: It was shown in the atherogenic rabbit model (White New Zealand rabbits were fed with 0.25% cholesterol plus 3% coconut oil) that even a short 6 week period of an atherogenic diet leads to sustained endothelial dysfunction, even though the animals received a normal diet for 3 months thereafter. […] The endothelium-dependent relaxation of isolated aortic rings of rabbits as well as the release of nitric oxide and superoxide from endothelial cells serve as measures of endothelial dysfunction. […] (II-B) [table]

[11] = test system: endothelial cells; assay: NO and superoxide release from endothelial cells in rabbits fed an atherogenic diet; format: in vivo, White New Zealand rabbits; details: varied diet rabbits; mean ± SEM
Excerpt: It was shown in the atherogenic rabbit model (White New Zealand rabbits were fed with 0.25% cholesterol plus 3% coconut oil) that even a short 6 week period of an atherogenic diet leads to sustained endothelial dysfunction, even though the animals received a normal diet for 3 months thereafter.
The endothelium-dependent relaxation of isolated aortic rings of rabbits as well as the release of nitric oxide and superoxide from endothelial cells serve as measures of endothelial dysfunction.
• Groups: • Standard: 18 weeks normal diet • Atherogenic: 18 weeks atherogenic diet (3% Coconut oil+0.25% Cholesterol) • Varied diet (Var.): 6 weeks atherogenic diet+12 weeks normal diet • Varied Diet+ramipril: 6 weeks atherogenic diet+12 weeks normal diet+ramipril • Varied diet+compound (II-B): 6 weeks atherogenic diet+12 weeks normal diet+cpd. (II-B)
NO and O2^− are markers for endothelial function: increased relaxation and increased NO levels are beneficial, while increased O2^− formation inhibits the beneficial effects of NO.

[12] = acute treatment; Chen et al., Hypertension 2001; cited from earlier work
[13] = 17-week-old ZDF rats treated for seven weeks, dot blot
[14] = age 10 weeks (start of treatment)
[15] = age 17 weeks (treated for seven weeks)
[16] = kidneys, male fat ZDF rats, terminal sacrifice
[17] = kidneys, male fat ZDF rats, terminal sacrifice, examined: D1 9, D4 8

SMILES: CC(=O)S[C@@H](Cc1ccccc1)C(=O)N[C@H]1Cc2ccccc2[C@H]2CCC[C@@H](C(=O)O)N2C1=O [cpd. (III-B)]
Incidence of glomerulosclerosis or associated degenerative lesions compared to fat ZDF controls [1]: no differences
AGE-subtype CEL in the kidneys (anti-CEL), mean [2, 13]: 52.60 rf * 10^5
AGE-subtype CML in the kidneys (anti-CML 011), mean [2, 13]: 38.67 rf * 10^5
AGE-subtype pentosidine in the kidneys (anti-pentosidine 012), mean [2, 13]: 40.70 rf * 10^5
Kidney AGE (Nε-(carboxymethyl)lysine or CML) values ([2]; diabetic rats, summary in words): lowers the CML value significantly
AGE values for subtype CEL compared to untreated ZDF rats ([2]; kidney, dot blot, in words): Lower AGE values
AGE values for subtype pentosidine compared to untreated ZDF rats ([2]; kidney, dot blot, in words): Lower AGE values
mean CML conc. ([3]; hearts of 17-week-old ZDF rats): 66%
mean CML conc. ([3]; kidneys of 17-week-old ZDF rats): 60%
mean CML conc. ([3]; kidneys of 37-week-old ZDF rats): 93%
CML concentration in the heart of 17-week-old ZDF rats ([3]; in words): also reduces
CML concentration in the kidneys of 17-week-old ZDF rats ([3]; in words): also reduces
Blood glucose concentration compared to the untreated ZDF rats ([4]; in words): significantly lower
blood glucose, mean [4, 14]: 10.37 mM
blood glucose, mean [4, 15]: 19.74 mM
Blood glucose value compared with the ACE inhibitor ramipril ([4]; in words): lower values
HbA1c values compared to the untreated ZDF rats ([5]; in words): significantly lower
HbA1c, mean [5, 14]: 5.60%
HbA1c, mean [5, 15]: 7.19%
HbA1c value compared with the ACE inhibitor ramipril ([5]; in words): lower values

Dilatation: pelvis GRADE 2: number of animals [1, 16]: 1
Dilatation: pelvis GRADE 3: number of animals [1, 16]: 2
Dilatation: pelvis GRADE 4: number of animals [1, 16]: 2
Dilatation: pelvis MEAN SEVERITY [1, 16]: 3.2
Dilatation: pelvis: number of animals with finding (total affected) [1, 17]: 5
SMILES: CCOC(=O)[C@H](CCc1ccccc1)N[C@@H](C)C(=O)N1[C@H](C(=O)O)C[C@@H]2CCC[C@@H]21 [ramipril, reference compound]
Urine excretion Albumin ([6]; week 0 of treatment): 0.24 mg/kg/h
Urine excretion Albumin/Creatinine ([6]; week 0 of treatment): 37.31 mg/mmol
Urine excretion Albumin ([6]; week 7 of treatment): 1.36 mg/kg/h
Urine excretion Albumin/Creatinine ([6]; week 7 of treatment): 207.35 mg/mmol
Urine excretion Albumin ([6]; week 17 of treatment): 6.26 mg/kg/h
Urine excretion Albumin/Creatinine ([6]; week 17 of treatment): 694.20 mg/mmol
Urine excretion Albumin ([6]; week 27 of treatment): 10.11 mg/kg/h
Urine excretion Albumin/Creatinine ([6]; week 27 of treatment): 1077.88 mg/mmol
Incidence of glomerulosclerosis or associated degenerative lesions compared to fat ZDF controls [1]: no differences
Armanni-Ebstein cells GRADE 1: number of animals [1, 16]: 1
Armanni-Ebstein cells GRADE 2: number of animals [1, 16]: 6
Armanni-Ebstein cells MEAN SEVERITY [1, 16]: 1.9
Atrophy: renal tubule GRADE 1: number of animals [1, 16]: 4
Atrophy: renal tubule GRADE 2: number of animals [1, 16]: 4
Atrophy: renal tubule GRADE 3: number of animals [1, 16]: 1
Atrophy: renal tubule MEAN SEVERITY [1, 16]: 1.7
Casts: renal tubule GRADE 1: number of animals [1, 16]: 1
Casts: renal tubule GRADE 2: number of animals [1, 16]: 7
Casts: renal tubule MEAN SEVERITY [1, 16]: 1.9
Glomerulosclerosis GRADE 2: number of animals [1, 16]: 4
Glomerulosclerosis GRADE 3: number of animals [1, 16]: 2
Glomerulosclerosis MEAN SEVERITY [1, 16]: 2.3
Armanni-Ebstein cells: number of animals with finding (total affected) [1, 17]: 7
Atrophy: renal tubule: number of animals with finding (total affected) [1, 17]: 9
Casts: renal tubule: number of animals with finding (total affected) [1, 17]: 8
Glomerulosclerosis: number of animals with finding (total affected) [1, 17]: 6
Albumin/Creatinine ([7]; 6 weeks treatment): 1249.59 mg/mmol
Albumin/Creatinine ([7]; 12 weeks treatment): 841.69 mg/mmol
Albumin/Creatinine ([7]; Basal): 1330.99 mg/mmol
Albumin/Creatinine ([8]; 6 weeks treatment): 161.71 mg/mmol
Albumin/Creatinine ([8]; 12 weeks treatment): 244.89 mg/mmol
Albumin/Creatinine ([8]; Basal): 103.95 mg/mmol
Albumin/Creatinine ([9]; 6 weeks treatment): 184.27 mg/mmol
Albumin/Creatinine ([9]; 12 weeks treatment): 188.40 mg/mmol
Albumin/Creatinine ([9]; Basal): 130.45 mg/mmol
Blood glucose concentration compared to the untreated ZDF rats ([4]; in words): No significant difference
blood glucose, mean [4, 14]: 11.74 mM
blood glucose, mean [4, 15]: 27.33 mM
HbA1c values compared to the untreated ZDF rats ([5]; in words): No significant difference
HbA1c, mean [5, 14]: 5.66%
HbA1c, mean [5, 15]: 9.48%
Relaxation of aortic rings by acetylcholine ([10]; ACh 10^−5 mol/L after phenylephrine 10^−7 mol/L): 83.73 ± 4.03%
Relaxation of aortic rings by acetylcholine ([10]; ACh 10^−6 mol/L after phenylephrine 10^−7 mol/L): 77.34 ± 3.7%
Relaxation of aortic rings by acetylcholine ([10]; ACh 10^−7 mol/L after phenylephrine 10^−7 mol/L): 51.86 ± 4.43%
Relaxation of aortic rings by acetylcholine ([10]; ACh 10^−8 mol/L after phenylephrine 10^−7 mol/L): 13.08 ± 2.22%
NO [11]: 368.31 ± 42.25 nM
O2^− (superoxide) [11]: 48.09 ± 7.91 nM

SMILES: O=C(N[C@H]1CCS[C@H]2CCC[C@@H](C(=O)O)N2C1=O)[C@@H](S)Cc1ccccc1 [omapatrilat]
Natriuretic response compared with ACE inhibitor fosinoprilat [12]: greater natriuretic response
